# Experimental data as given in ChEMBL document CHEMBL4145602, “Cyclic Peptidic Mimetics of Apollo Peptides Targeting Telomeric Repeat Binding Factor 2 (TRF2) and Apollo Interaction” (ACS Med Chem Lett, 2018).
# Square brackets hold non-standard residues; d marks the D form. Peptide text beside a SMILES is read from it. Phe(4-NH2) = Nc1ccc(C[C@H](N)C(=O)O)cc1
# Molecular target: T1, Telomeric repeat-binding factor 2 (Homo sapiens, UniProt Q15554)
# T1 sequence (Q15554 whole entry): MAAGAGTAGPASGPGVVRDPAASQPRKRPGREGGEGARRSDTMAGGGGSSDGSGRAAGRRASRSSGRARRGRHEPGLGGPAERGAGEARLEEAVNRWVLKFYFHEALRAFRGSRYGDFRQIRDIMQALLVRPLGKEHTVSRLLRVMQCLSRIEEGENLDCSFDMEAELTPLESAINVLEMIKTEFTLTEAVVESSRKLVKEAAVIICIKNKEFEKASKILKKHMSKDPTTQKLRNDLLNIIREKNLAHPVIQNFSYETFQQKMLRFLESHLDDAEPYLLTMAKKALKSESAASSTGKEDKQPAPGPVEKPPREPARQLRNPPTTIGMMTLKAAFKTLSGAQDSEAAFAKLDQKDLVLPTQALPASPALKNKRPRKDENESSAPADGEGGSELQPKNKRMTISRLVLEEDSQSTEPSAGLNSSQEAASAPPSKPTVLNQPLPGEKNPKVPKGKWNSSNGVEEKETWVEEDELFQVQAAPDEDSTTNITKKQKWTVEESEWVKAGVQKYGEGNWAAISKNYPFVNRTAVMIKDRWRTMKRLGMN
# Experiment: Displacement of 5-((2R,6S,9S,12S,15S,18S,21S,24S)-3-((S)-2-((S)-1-amino-3-methyl-1-oxobutan-2-ylcarbamoyl)pyrrolidine-1-carbonyl)-15-(4-aminobutyl)-2-hydroxy-12-(4-hydroxybenzyl)-6,9,18,24-tetraisobutyl-21-methyl-5,8,11,14,17,20,23,26,29-nonaoxo-4,7,10,13,16,19,22,25,28-nonaazatetratriacontan-34-ylcarbamoyl)-2-(6-hydroxy-3-oxo-3H-xanthen-9-yl)benzoic acid from TRF2 TRFH domain (unknown origin) after 30 mins by fluorescence polarization assay
smiles,measurement,value
CC(=O)N[C@@H](CC(C)C)C(=O)N[C@@H](C)C(=O)N[C@@H](CC(C)C)C(=O)N[C@@H](CCCCN)C(=O)N[C@@H](Cc1ccc(N)cc1)C(=O)N[C@@H](CC(C)C)C(=O)N[C@@H](CC(C)C)C(=O)N[C@H](C(=O)N1CCC[C@H]1C(=O)N[C@H](C(N)=O)C(C)C)[C@@H](C)O (Ac-LALK[Phe(4-NH2)]LLTPV-NH2),Ki,720 nM
CC(=O)N[C@@H](CC(C)C)C(=O)N[C@@H](C)C(=O)N[C@@H](CC(C)C)C(=O)N[C@@H](CCCCN)C(=O)N[C@@H](Cc1ccc(O)cc1)C(=O)N[C@@H](CC(C)C)C(=O)N[C@@H](C)C(=O)N[C@H](C(=O)N1CCC[C@H]1C(=O)N[C@H](C(N)=O)C(C)C)[C@@H](C)O (Ac-LALKYLATPV-NH2),Ki,> 100000 nM
